Assay results reported in US10590113B2, “6-hydroxy-4-oxo-1,4-dihydropyrimidine-5-carboxamides as APJ agonists” (priority 2016, dated 2020).

target: T1, human APJ receptor (Homo sapiens, UniProt P35414); assay: Intracellular cAMP Accumulation Assay (APJ hcAMP, HTRF); type: cell-based; settings: not given
T1 construct: expressed in transfected cells; host or cells: HEK293
T1 sequence (P35414 1-380): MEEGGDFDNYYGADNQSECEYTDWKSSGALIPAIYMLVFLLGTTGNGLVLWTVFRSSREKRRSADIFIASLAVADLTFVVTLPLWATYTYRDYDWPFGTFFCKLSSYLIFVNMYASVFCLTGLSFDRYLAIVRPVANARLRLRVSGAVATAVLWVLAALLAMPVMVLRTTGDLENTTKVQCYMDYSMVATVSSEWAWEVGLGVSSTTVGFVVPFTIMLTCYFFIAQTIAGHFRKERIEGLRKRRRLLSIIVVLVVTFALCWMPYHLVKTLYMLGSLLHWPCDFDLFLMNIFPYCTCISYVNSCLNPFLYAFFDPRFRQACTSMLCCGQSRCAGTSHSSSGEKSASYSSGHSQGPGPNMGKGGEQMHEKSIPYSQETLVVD
Description: Intracellular cAMP Accumulation Assay
HEK293 cells stably expressing human APJ receptor were used to assess the activity of compounds. Cultured cells were detached and resuspended in the cAMP
Homogeneous Time-Resolved Fluorescence (HTRF) assay buffer (Cisbio cat; #62AM4PEJ). The assay was performed in 384-well assay plates (Perkin-Elmer; cat #6008289) according to assay protocol provided by the manufacturer. Serial dilutions of a compound together with assay buffer containing […] IBMX and 2 μM forskolin were added to each well containing 5,000 cells and incubated for 30 minutes at room temperature. Subsequently, cAMP D2 reagent was added in the lysis buffer followed by the EuK antibody (Cisbio; cat #62AM4PEJ) and incubated for 60 min. The fluorescence emission ratio was measured using fluorometer. The intracellular cAMP concentrations (compound-stimulated inhibition of forskolin-mediated cAMP production) were calculated by extrapolation from a standard curve using known cAMP concentrations. The EC50 values were obtained by fitting the data to a sigmoidal concentration-response curve with variable slope.
The EC50 value of each compound is presented at the end of the example description.
The biological activity of the exemplified compounds of this invention determined by the assay described above is shown at the end of each example.

EC50, 0.01 to 10 nM:
CCCCc1nc(=O)c(C(=O)N2CCC(c3ccccn3)C2)c(O)n1-c1c(OC)cccc1OC (single isomer, unassigned) [Example 68, 2-butyl-1-(2,6-dimethoxyphenyl)-6-hydroxy-5-[3-(pyridin-2-yl)pyrrolidine-1-carbonyl]-1,4-dihydropyrimidin-4-one]
CCCCc1nc(=O)c(C(=O)N2CCC(c3cccnc3)C2)c(O)n1-c1c(OC)cccc1OC (single isomer, unassigned) [Example 75, 2-butyl-1-(2,6-dimethoxyphenyl)-6-hydroxy-5-[3-(pyridin-3-yl)pyrrolidine-1-carbonyl]-1,4-dihydropyrimidin-4-one]

same assay, conditions: human APJ, intracellular cAMP accumulation; read-out: hAPJ cAMP EC50 Potency range

EC50, 0.01 to 10 nM:
CCCCc1nc(=O)c(C(=O)N2CCC(c3ccccc3F)C2)c(O)n1-c1c(OC)cccc1OC (single isomer, unassigned) [Example 52, 2-butyl-1-(2,6-dimethoxyphenyl)-5-[3-(2-fluorophenyl)pyrrolidine-1-carbonyl]-6-hydroxy-1,4-dihydropyrimidin-4-one]
CCCCc1nc(=O)c(C(=O)N2CCC(c3ccccc3F)C2)c(O)n1-c1c(OC)cccc1OC (single isomer, unassigned) [Example 53, 2-butyl-1-(2,6-dimethoxyphenyl)-5-[3-(2-fluorophenyl)pyrrolidine-1-carbonyl]-6-hydroxy-1,4-dihydropyrimidin-4-one]
CCOCc1nc(=O)c(C(=O)N2CCC(c3ccccn3)C2)c(O)n1-c1c(OC)cccc1OC (single isomer, unassigned) [Example 54, 1-(2,6-dimethoxyphenyl)-2-(ethoxymethyl)-6-hydroxy-5-[3-(pyridin-2-yl)pyrrolidine-1-carbonyl]-1,4-dihydropyrimidin-4-one]
CCOCc1nc(=O)c(C(=O)N2CCC(c3ccccn3)C2)c(O)n1-c1c(OC)cccc1OC (single isomer, unassigned) [Example 55, 1-(2,6-dimethoxyphenyl)-2-(ethoxymethyl)-6-hydroxy-5-[3-(pyridin-2-yl)pyrrolidine-1-carbonyl]-1,4-dihydropyrimidin-4-one]
CCOCc1nc(=O)c(C(=O)N2CCC(c3ccc(F)cc3)C2)c(O)n1-c1c(OC)cccc1OC (single isomer, unassigned) [Example 57, 1-(2,6-dimethoxyphenyl)-2-(ethoxymethyl)-5-[3-(4-fluorophenyl)pyrrolidine-1-carbonyl]-6-hydroxy-1,4-dihydropyrimidin-4-one]
CCCCc1nc(=O)c(C(=O)N2CCC(c3ccc(F)cc3)C2)c(O)n1-c1c(OC)cccc1OC (single isomer, unassigned) [Example 77, 2-butyl-1-(2,6-dimethoxyphenyl)-5-[3-(4-fluorophenyl)pyrrolidine-1-carbonyl]-6-hydroxy-1,4-dihydropyrimidin-4-one]
CCCCc1nc(=O)c(C(=O)N2CCC(c3cccc(F)c3)C2)c(O)n1-c1c(OC)cccc1OC (single isomer, unassigned) [Example 78, 2-butyl-1-(2,6-dimethoxyphenyl)-5-[3-(3-fluorophenyl)pyrrolidine-1-carbonyl]-6-hydroxy-1,4-dihydropyrimidin-4-one]
CCCCc1nc(=O)c(C(=O)N2CCC(c3ccc(F)cc3)C2)c(O)n1-c1c(OC)cccc1OC (single isomer, unassigned) [Example 79, 2-butyl-1-(2,6-dimethoxyphenyl)-5-[3-(4-fluorophenyl)pyrrolidine-1-carbonyl]-6-hydroxy-1,4-dihydropyrimidin-4-one]
CCCCc1nc(=O)c(C(=O)N2CCC(c3cccc(F)c3)C2)c(O)n1-c1c(OC)cccc1OC (single isomer, unassigned) [Example 80, 2-butyl-1-(2,6-dimethoxyphenyl)-5-[3-(3-fluorophenyl)pyrrolidine-1-carbonyl]-6-hydroxy-1,4-dihydropyrimidin-4-one]
CCOCc1nc(=O)c(C(=O)N2CCC(c3ccc(F)cc3)C2)c(O)n1-c1c(OC)cccc1OC (single isomer, unassigned) [Example 81, 1-(2,6-dimethoxyphenyl)-2-(ethoxymethyl)-5-[3-(4-fluorophenyl)pyrrolidine-1-carbonyl]-6-hydroxy-1,4-dihydropyrimidin-4-one]
CCOCc1nc(=O)c(C(=O)N2CCC(c3cccnc3)C2)c(O)n1-c1c(OC)cccc1OC (single isomer, unassigned) [Example 82, 1-(2,6-dimethoxyphenyl)-2-(ethoxymethyl)-6-hydroxy-5-[3-(pyridin-3-yl)pyrrolidine-1-carbonyl]-1,4-dihydropyrimidin-4-one]
CCOCc1nc(=O)c(C(=O)N2CCC(c3cccc(F)c3)C2)c(O)n1-c1c(OC)cccc1OC (single isomer, unassigned) [Example 83, 1-(2,6-dimethoxyphenyl)-2-(ethoxymethyl)-5-[3-(3-fluorophenyl)pyrrolidine-1-carbonyl]-6-hydroxy-1,4-dihydropyrimidin-4-one]
CCOCc1nc(=O)c(C(=O)N2CCC(c3cccc(F)c3)C2)c(O)n1-c1c(OC)cccc1OC (single isomer, unassigned) [Example 84, 1-(2,6-dimethoxyphenyl)-2-(ethoxymethyl)-5-[3-(3-fluorophenyl)pyrrolidine-1-carbonyl]-6-hydroxy-1,4-dihydropyrimidin-4-one]
CCOCc1nc(=O)c(C(=O)N2CCC(c3cccnc3)C2)c(O)n1-c1c(OC)cccc1OC (single isomer, unassigned) [Example 85, 1-(2,6-dimethoxyphenyl)-2-(ethoxymethyl)-6-hydroxy-5-[3-(pyridin-3-yl)pyrrolidine-1-carbonyl]-1,4-dihydropyrimidin-4-one]
COc1cccc(OC)c1-n1c(COC(C)C)nc(=O)c(C(=O)N2CCC(c3ccccc3Cl)C2)c1O (single isomer, unassigned) [Example 92, 5-[3-(2-chlorophenyl)pyrrolidine-1-carbonyl]-1-(2,6-dimethoxyphenyl)-6-hydroxy-2-[(propan-2-yloxy)methyl]-1,4-dihydropyrimidin-4-one]
COc1cccc(OC)c1-n1c(COC(C)C)nc(=O)c(C(=O)N2CCC(c3ccccc3F)C2)c1O (single isomer, unassigned) [Example 93, 1-(2,6-dimethoxyphenyl)-5-[3-(2-fluorophenyl)pyrrolidine-1-carbonyl]-6-hydroxy-2-[(propan-2-yloxy)methyl]-1,4-dihydropyrimidin-4-one]
COc1cccc(OC)c1-n1c(COC(C)C)nc(=O)c(C(=O)N2CCC(c3ccc(F)cc3)C2)c1O (single isomer, unassigned) [Example 94, 1-(2,6-dimethoxyphenyl)-5-[3-(4-fluorophenyl)pyrrolidine-1-carbonyl]-6-hydroxy-2-[(propan-2-yloxy)methyl]-1,4-dihydropyrimidin-4-one]
COc1cccc(OC)c1-n1c(COC(C)C)nc(=O)c(C(=O)N2CCC(c3cccc(F)c3)C2)c1O (single isomer, unassigned) [Example 95, 1-(2,6-dimethoxyphenyl)-5-[3-(3-fluorophenyl)pyrrolidine-1-carbonyl]-6-hydroxy-2-[(propan-2-yloxy)methyl]-1,4-dihydropyrimidin-4-one]
COc1cccc(OC)c1-n1c(COC(C)C)nc(=O)c(C(=O)N2CCC(c3cccc(F)c3)C2)c1O (single isomer, unassigned) [Example 97, 1-(2,6-dimethoxyphenyl)-5-[3-(3-fluorophenyl)pyrrolidine-1-carbonyl]-6-hydroxy-2-[(propan-2-yloxy)methyl]-1,4-dihydropyrimidin-4-one]

same assay, conditions: read-out: hAPJ cAMP EC50 Potency range; human APJ, intracellular cAMP accumulation

EC50, 0.01 to 10 nM:
CCCCc1nc(=O)c(C(=O)N2CCC(c3ccccn3)C2)c(O)n1-c1c(OC)cccc1OC (single isomer, unassigned) [Example 70, 2-butyl-1-(2,6-dimethoxyphenyl)-6-hydroxy-5-[3-(pyridin-2-yl)pyrrolidine-1-carbonyl]-1,4-dihydropyrimidin-4-one]
CCCCc1nc(=O)c(C(=O)N2CCC(c3cccnc3)C2)c(O)n1-c1c(OC)cccc1OC (single isomer, unassigned) [Example 76, 2-butyl-1-(2,6-dimethoxyphenyl)-6-hydroxy-5-[3-(pyridin-3-yl)pyrrolidine-1-carbonyl]-1,4-dihydropyrimidin-4-one]
